The term Ki denotes a measure of affinity in units of concentration, obtained from inhibition or displacement.

Series [1] addresses T1, renal dipeptidase (E.C.3.4.13.11) (Sus scrofa, UniProt P22412).
T1 construct: solubilized preparation of dipeptidase isolated from hog kidneys; from tissue; host or cells: hog kidney (solubilized, lyophilized enzyme preparation)
T1 sequence (P22412 17-409): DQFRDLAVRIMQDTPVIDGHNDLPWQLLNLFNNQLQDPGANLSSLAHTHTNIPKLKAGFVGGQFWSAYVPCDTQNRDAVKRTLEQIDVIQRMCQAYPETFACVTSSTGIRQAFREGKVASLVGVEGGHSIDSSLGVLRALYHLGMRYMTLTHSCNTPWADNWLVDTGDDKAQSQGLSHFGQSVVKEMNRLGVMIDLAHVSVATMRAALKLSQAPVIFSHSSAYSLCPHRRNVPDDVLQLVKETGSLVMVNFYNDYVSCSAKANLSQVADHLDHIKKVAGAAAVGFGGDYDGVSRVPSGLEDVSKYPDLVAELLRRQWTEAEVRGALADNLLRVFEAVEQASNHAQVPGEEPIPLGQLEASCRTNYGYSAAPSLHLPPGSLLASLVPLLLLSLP
The series is described as follows: in vitro screen: inhibition of hydrolysis of glycyldehydrophenylalanine (GDP) by solubilized dipeptidase from hog kidneys. Format: biochemical. To be noted: GDP 0.05 mM; pH 7.1; 37° C.; hog kidney dipeptidase; read-out: inhibitor binding constant, Ki (ki). As for the experimental part:
This measured the ability of compounds to inhibit hydrolysis of glycyldehydrophenylalanine (GDP) by a solubilized preparation of dipeptidase isolated from hog kidneys. The procedure is as follows: to a 1 ml. system containing 50 mM "MOPS" (3-(N-morpholino)propanesulfonic acid) buffer, pH 7.1, is added 5 μg of lyophilized enzyme, and the test compound at a final concentration of 0.1 mM. After a five minute incubation at 37° C., GDP is added to a final concentration of 0.05 mM. […] Inhibition of the enzyme is gauged by comparison to a standard run containing no inhibitor and is expressed as the inhibitor binding constant, Ki.

A further series concerns the target T2, renal dipeptidase (Sus scrofa, UniProt P22412).
T2 construct: GPI-anchored homodimer
T2 sequence (P22412 17-384): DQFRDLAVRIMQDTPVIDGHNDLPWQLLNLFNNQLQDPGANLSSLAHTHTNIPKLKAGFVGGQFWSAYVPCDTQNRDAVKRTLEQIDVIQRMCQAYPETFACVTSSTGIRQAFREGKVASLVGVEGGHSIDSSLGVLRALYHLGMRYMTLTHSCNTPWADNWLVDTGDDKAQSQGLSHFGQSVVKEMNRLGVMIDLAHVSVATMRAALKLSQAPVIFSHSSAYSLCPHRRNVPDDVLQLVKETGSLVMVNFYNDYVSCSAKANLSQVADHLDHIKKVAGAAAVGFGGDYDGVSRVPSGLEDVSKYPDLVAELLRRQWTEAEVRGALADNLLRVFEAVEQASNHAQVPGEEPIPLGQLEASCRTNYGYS
Put plainly: hydrolysis of GDP and thienamycin as substrates by renal dipeptidase. The class given is biochemical, hog. To be noted: GDP compared with thienamycin.

Series [2] can be described thus: disposition studies with thienamycin, its natural analogs and semi-synthetic derivatives (urinary recovery, plasma half-life). Format: in vivo. To be noted: mouse, rat, dog, chimpanzee, Rhesus monkey. As for the experimental part:
Chem., 205 65 (1932); see also Greenstein, J. P., Advances in Enzymology, Vol. VIII, Wiley-Interscience, (1948), New York, and Campbell, B. J.; Lin, Y-C., Davis, R. V. and Ballew, E., "The Purification and Properties of Particulate Renal Dipeptidase", Biochim. Biophys. Acta., 118, 371 (1966).
Urinary recovery of thienamycin was measured in all cases with the use of a cylinder or disc diffusion assay, conducted in a manner described in U.S. Pat. No. 3,950,357. This bioassay, with Staphylococcus aureus ATCC 6538 as the test organism, has a useful response range from 0.04 μg/ml to 3.0 μg/ml.

With `CC1(C)CC1C(=O)N/C(=C\CCCCSc1ccc(C(=O)O)cn1)C(=O)O` (racemic) [Example 4, Racemic Z-7-(5-carboxy-2-pyridylthio)-2-(2,2-dimethylcyclopropanecarboxamido)-2-heptenoic acid], in series [1], the Ki came out at 250 nM.
Regarding `NCC(=O)NC(=Cc1ccccc1)C(=O)O` [GDP, glycyldehydrophenylalanine], the “maximal velocity of hydrolysis by renal dipeptidase” value on renal dipeptidase is “much higher maximal velocity of hydrolysis”.
Turning to `CC1(C)CC1C(=O)N/C(=C\CCCCSc1ncccc1O)C(=O)O` (single isomer, unassigned; (+)) [Example 2, (+)-Z-2-(2,2-Dimethylcyclopropanecarboxamido)-7-(3-hydroxy-2-pyridylthio)-2-heptenoic acid], the inhibition constant Ki in series [1] was determined as 20 nM.
On the same count and under the same terms, as for `CC1(C)CC1C(=O)N/C(=C\CCCCSc1ncccc1C(=O)O)C(=O)O` (racemic) [Example 3, Racemic Z-7-(3-carboxy-2-pyridylthio)-2-(2,2-dimethylcyclopropanecarboxamido)-2-heptenoic acid], the figure is 40 nM.
On to `C[C@@H](O)[C@H]1C(=O)N2C(C(=O)O)=C(SCCN)C[C@H]12` [thienamycin], for which, in series [2], the plasma half-life result is “short plasma half-lives” and the urinary recovery entry was “low urinary recovery”.
